In the supplement of paper PMC10307832:

How the values were obtained:
Test in all cases: relative viability (nuclei count vs DMSO), 5 days (fraction); higher = more cells survive
HCC-44 = test system: HCC-44
In short: (§1)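 Medians of duplicate plates are given as relative viability. That measure is the nuclei count in treated wells divided by the count in vehicle wells. Counts were taken on 4× images of lung cancer cell lines in 1536-well plates, 5 days after pin-tool dosing the day after seeding with one drug alone or a fixed anchor-drug dose plus five library-drug doses (not always all listed) in √10 steps.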

NCI-H2405 = test system: NCI-H2405
In short: as §1

NCI-H460 = test system: NCI-H460
In short: as §1

A-427 = test system: A-427
In short: as §1

NCI-H1755 = test system: NCI-H1755
In short: as §1

ChaGo-K-1 = test system: ChaGo-K-1
In short: as §1

EPLC-272H = test system: EPLC-272H
In short: as §1

NCI-H522 = test system: NCI-H522
In short: as §1

NCI-H647 = test system: NCI-H647
In short: as §1

NCI-H358 = test system: NCI-H358
In short: as §1

RERF-LC-KJ = test system: RERF-LC-KJ
In short: as §1

COR-L 105 = test system: COR-L 105
In short: as §1

LK-2 = test system: LK-2
In short: as §1

EMC-BAC-2 = test system: EMC-BAC-2
In short: as §1

NCI-H1792 = test system: NCI-H1792
In short: as §1

LU99A = test system: LU99A
In short: as §1

NCI-H1650 = test system: NCI-H1650
In short: as §1

HARA = test system: HARA
In short: as §1

NCI-H1734 = test system: NCI-H1734
In short: as §1

NCI-H1993 = test system: NCI-H1993
In short: as §1

NCI-H596 = test system: NCI-H596
In short: as §1

EKVX = test system: EKVX
In short: as §1

SW 900 = test system: SW 900
In short: as §1

For `Cc1csc(=NC2CCCCC2)n1/N=C/c1ccc(O)c(O)c1O` [MIM1] + COc1cccc2cc(-c3nc([C@H]4CC[C@H](C(=O)O)CC4)n4ncnc(N)c34)[nH]c12 [OSI-027] (partner 0.5 µM), the relative viability (HCC-44; first compound 0.2 µM) was 0.699, the relative viability (HCC-44; first compound 0.6325 µM) was 0.5 and the relative viability (HCC-44; first compound 2 µM) was 0.271. For the same compound, the relative viability (HCC-44; first compound 6.325 µM) was 0.448, the relative viability (HCC-44; first compound 20 µM) was 0.184 and the relative viability (NCI-H2405; first compound 0.2 µM) was 0.638. The relative viability (NCI-H2405; first compound 0.6325 µM) was 0.666, the relative viability (NCI-H2405; first compound 2 µM) was 0.637 and the relative viability (NCI-H2405; first compound 6.325 µM) was 0.553. It also gave a relative viability (NCI-H2405; first compound 20 µM) of 0.434, a relative viability (NCI-H460; first compound 0.2 µM) of 0.651 and a relative viability (NCI-H460; first compound 0.6325 µM) of 0.66. For the same compound, the relative viability (NCI-H460; first compound 2 µM) was 0.42, the relative viability (NCI-H460; first compound 6.325 µM) was 0.423 and the relative viability (NCI-H460; first compound 20 µM) was 0.0316. For the same compound, the relative viability (A-427; first compound 0.2 µM) was 0.432, the relative viability (A-427; first compound 2 µM) was 0.48 and the relative viability (A-427; first compound 6.325 µM) was 0.456. For the same compound, the relative viability (A-427; first compound 20 µM) was 0.191, the relative viability (NCI-H1755; first compound 0.2 µM) was 0.833 and the relative viability (NCI-H1755; first compound 0.6325 µM) was 0.69. For the same compound, the relative viability (NCI-H1755; first compound 2 µM) was 0.779, the relative viability (NCI-H1755; first compound 6.325 µM) was 0.703 and the relative viability (NCI-H1755; first compound 20 µM) was 0.223. For the same compound, the relative viability (ChaGo-K-1; first compound 0.2 µM) was 0.597, the relative viability (ChaGo-K-1; first compound 0.6325 µM) was 0.433 and the relative viability (ChaGo-K-1; first compound 2 µM) was 0.535. For the same compound, the relative viability (ChaGo-K-1; first compound 6.325 µM) was 0.387, the relative viability (ChaGo-K-1; first compound 20 µM) was 0.159 and the relative viability (EPLC-272H; first compound 0.2 µM) was 0.254. The relative viability (EPLC-272H; first compound 0.6325 µM) was 0.269, the relative viability (EPLC-272H; first compound 2 µM) was 0.308 and the relative viability (EPLC-272H; first compound 6.325 µM) was 0.24. The relative viability (EPLC-272H; first compound 20 µM) was 0.141, the relative viability (NCI-H522; first compound 0.2 µM) was 0.761 and the relative viability (NCI-H522; first compound 0.6325 µM) was 0.578. The relative viability (NCI-H522; first compound 2 µM) was 0.717, the relative viability (NCI-H522; first compound 6.325 µM) was 0.696 and the relative viability (NCI-H522; first compound 20 µM) was 0.67. The relative viability (NCI-H647; first compound 0.2 µM) was 0.708, the relative viability (NCI-H647; first compound 0.6325 µM) was 0.658 and the relative viability (NCI-H647; first compound 6.325 µM) was 0.557. For the same compound, the relative viability (NCI-H647; first compound 20 µM) was 0.43, the relative viability (NCI-H358; first compound 0.2 µM) was 0.772 and the relative viability (NCI-H358; first compound 0.6325 µM) was 0.7. For the same compound, the relative viability (NCI-H358; first compound 2 µM) was 0.755, the relative viability (NCI-H358; first compound 6.325 µM) was 0.447 and the relative viability (NCI-H358; first compound 20 µM) was 0.128. For the same compound, the relative viability (RERF-LC-KJ; first compound 0.2 µM) was 0.555, the relative viability (RERF-LC-KJ; first compound 0.6325 µM) was 0.629 and the relative viability (RERF-LC-KJ; first compound 2 µM) was 0.403. For the same compound, the relative viability (RERF-LC-KJ; first compound 6.325 µM) was 0.313, the relative viability (RERF-LC-KJ; first compound 20 µM) was 0.195 and the relative viability (COR-L 105; first compound 0.2 µM) was 0.733. The relative viability (COR-L 105; first compound 0.6325 µM) was 0.725, the relative viability (COR-L 105; first compound 2 µM) was 0.596 and the relative viability (COR-L 105; first compound 6.325 µM) was 0.582. For the same compound, the relative viability (COR-L 105; first compound 20 µM) was 0.552, the relative viability (LK-2; first compound 0.2 µM) was 0.247 and the relative viability (LK-2; first compound 0.6325 µM) was 0.201. It also gave a relative viability (LK-2; first compound 2 µM) of 0.181, a relative viability (LK-2; first compound 6.325 µM) of 0.169 and a relative viability (LK-2; first compound 20 µM) of 0.184. It also gave a relative viability (EMC-BAC-2; first compound 0.2 µM) of 0.422, a relative viability (EMC-BAC-2; first compound 0.6325 µM) of 0.36 and a relative viability (EMC-BAC-2; first compound 2 µM) of 0.357. The relative viability (EMC-BAC-2; first compound 6.325 µM) was 0.344, the relative viability (EMC-BAC-2; first compound 20 µM) was 0.253 and the relative viability (NCI-H1792; first compound 0.2 µM) was 0.737. For the same compound, the relative viability (NCI-H1792; first compound 0.6325 µM) was 0.807, the relative viability (NCI-H1792; first compound 2 µM) was 0.791 and the relative viability (NCI-H1792; first compound 6.325 µM) was 0.578. For the same compound, the relative viability (NCI-H1792; first compound 20 µM) was 0.596, the relative viability (LU99A; first compound 0.2 µM) was 0.274 and the relative viability (LU99A; first compound 0.6325 µM) was 0.29. The relative viability (LU99A; first compound 2 µM) was 0.273, the relative viability (LU99A; first compound 6.325 µM) was 0.288 and the relative viability (LU99A; first compound 20 µM) was 0.233. It also gave a relative viability (NCI-H1650; first compound 0.2 µM) of 0.653, a relative viability (NCI-H1650; first compound 0.6325 µM) of 0.668 and a relative viability (NCI-H1650; first compound 2 µM) of 0.447. For the same compound, the relative viability (NCI-H1650; first compound 6.325 µM) was 0.164, the relative viability (NCI-H1650; first compound 20 µM) was 0.147 and the relative viability (HARA; first compound 0.2 µM) was 0.503. It also gave a relative viability (HARA; first compound 2 µM) of 0.547, a relative viability (HARA; first compound 6.325 µM) of 0.166 and a relative viability (HARA; first compound 20 µM) of 0.0624. For the same compound, the relative viability (NCI-H1734; first compound 0.2 µM) was 0.666, the relative viability (NCI-H1734; first compound 0.6325 µM) was 0.495 and the relative viability (NCI-H1734; first compound 2 µM) was 0.525. The relative viability (NCI-H1734; first compound 6.325 µM) was 0.304, the relative viability (NCI-H1734; first compound 20 µM) was 0.201 and the relative viability (NCI-H1993; first compound 0.2 µM) was 0.515. The relative viability (NCI-H1993; first compound 0.6325 µM) was 0.57, the relative viability (NCI-H1993; first compound 2 µM) was 0.557 and the relative viability (NCI-H1993; first compound 6.325 µM) was 0.518. For the same compound, the relative viability (NCI-H1993; first compound 20 µM) was 0.474, the relative viability (NCI-H596; first compound 0.2 µM) was 0.622 and the relative viability (NCI-H596; first compound 0.6325 µM) was 0.757. It also gave a relative viability (NCI-H596; first compound 2 µM) of 0.72, a relative viability (NCI-H596; first compound 6.325 µM) of 0.628 and a relative viability (NCI-H596; first compound 20 µM) of 0.659. The relative viability (EKVX; first compound 0.2 µM) was 0.803, the relative viability (EKVX; first compound 0.6325 µM) was 0.767 and the relative viability (EKVX; first compound 2 µM) was 0.719. It also gave a relative viability (EKVX; first compound 6.325 µM) of 0.53, a relative viability (EKVX; first compound 20 µM) of 0.583 and a relative viability (SW 900; first compound 0.2 µM) of 0.54. It also gave a relative viability (SW 900; first compound 0.6325 µM) of 0.789, a relative viability (SW 900; first compound 2 µM) of 0.703 and a relative viability (SW 900; first compound 6.325 µM) of 0.441. The relative viability (SW 900; first compound 20 µM) was 0.191.
